According to patent US10793509B2, “Compounds useful in the treatment of neoplastic diseases” (UNIVERSITÄT ZU KÖLN, priority 2013, dated 2020):
Where two headings read alike, the source gives them in different places.

Legend:
[1] = tested on: peripheral blood mononuclear cells (PBMCs) of healthy donors; assay: AnnexinV/PI assay on PBMCs of healthy donors; assay type: cell-based; details: Homo sapiens, PBMC
Description: (§1) PBMCs or CLL cells (5*10^6 cells/ml) were incubated for 24 h with different compounds at concentrations from 0.01 to 100 μM. Cell survival was normalized to DMSO control [vehicle]. See Example 1.
(§2) Primary CLL or peripheral blood mononuclear cells of healthy donors (5*10^6/ml) were incubated for 24 h with different compounds according to the invention and NO-ASA as a control. The compounds were added in different concentrations, in particular in concentrations from 0.01-100 μM. Cell survival was assessed by AnnexinV/PI assay (Kit commercially available, e.g. by Biotium Inc, USA; or Phoenix Flow Systems, US), the results were normalized to DMSO control [vehicle] and dose response curves were calculated using a non-linear regression model.

Primary CLL cells = assay: AnnexinV/PI assay on primary CLL cells; assay type: cell-based, human; details: for EC50: Homo sapiens, CLL cell, read-out: AnnexinV/PI assay EC50 Primary CLL; for selectivity for CLL cells compared to PBMCs: FIG. 3, sensitivity of CLL cells vs PBMCs
Description: as §1, §2

[2] = tested on: acute myeloid leukemia cell line SH2; assay: Annexin V/PI assay, SH2; assay type: cell-based; details: 24 h
[3] = tested on: colon carcinoma cell line SW480; assay: cells; assay type: cell-based; details: Homo sapiens, SW480, 24 h, read-out: Viability assay EC50, SW480
Description: The cell lines (n=5) were treated with different concentrations of p-NO-ASA, B9, B12 and B13 ranging between 0.01 μM and 100 μM for 24 hours followed by addition of luminogenic CellTiter-Glo®-reagent (see Example 5).
(§3) In the following experiment the possible therapeutic window for NO-ASA derivatives was investigated. […] The melanoma cell line MelJuso, the colon carcinoma cell line SW480, the small cell lung cancer cell line HCC44, the ovarian adenocarcinoma cell line COLO704 and the acute myeloid leukemia cell line SH2 were treated with concentrations of p-NO-ASA and B9, B12 and B13 in a range between 0.01 μM and 100 μM for 24 h, followed by addition of luminogenic CellTiter-Glo® reagent.
(§4) Table accompanying Example 5. Overview of the EC50 values of cell survival analyzed by ATP content and Annexin V/PI assay. n.t.; not tested

TP53-mutated CLL cells = assay: FACS analysis of treated CLL cells with TP53 mutation; assay type: cell-based, human; details: 24 h, 0.01-100 μM, FIG. 6
Description: (§5) Isolated, primary CLL cells were treated for 24 h with the EC50 of the different compounds and the ATP-content was measured by flow cytometry. For each used compound the order of mean EC50 concentrations in the bar chart is from left to right as following: EC50 CLL cells TP53 unmut (unmutated=without mutation), EC50 CLL cells TP53 mut (mutated=with mutation).
(§6) Further, the derivatives B9, B12 and B13 were tested in comparison to para-NO-ASA on CLL cells which harbour a TP53 mutation. The patient subgroup with a TP53 disruption is characterized by a considerable dismal prognosis. CLL cells of patients with and without the TP53 mutation were treated with five different concentrations (0.01, 0.1, 1, 10, 100 μM) of para-NO-ASA, B9, B12 and B13 for 24 h.

MEC-1 = assay: CellTiter-Glo ATP assay, MEC-1 cell line; assay type: cell-based; details: Homo sapiens, MEC1; 24 h, CellTiter-Glo
Description: (§7) Several cell lines (n=5) were treated with different concentrations of p-NO-ASA, B9, B12 and B13 ranging between 0.01 μM and 1000 μM for 24 hours followed by addition of luminogenic CellTiter-Glo®-reagent. […] For each cell line the order of used compound in the bar chart is from left to right as following: p-NO-ASA, B9, B12, B13.
(§8) Treatment success in CLL may depend on cytogenetic and molecular parameters as for instance del13q or TP53 gene disruption. Therefore, the NO-ASA derivatives were examined on (chronic) B cell lymphoma cell lines with different geno- and phenotypes (JVM3, EHEB, U2932, MEC-1, GRANTA-519). The cells were treated with concentrations between 0.01 and 1000 μM for 24 h followed by the addition of luminogenic CellTiter-Glo® reagent.

[4] = tested on: phosphorylated NFkappaBp65 protein; assay: Western blot of NFkappaB phosphorylation status in CLL cells; assay type: cell-based, human; details: 3 h; for reduction of NFkappaB activity (phosphorylated NFkappaBp65): CLL cells, 0.1, 1, 10 μM; for concentration inducing the reduction of NFkappaB p65 protein: CLL cells
Description: CLL cells were treated with B1, B9, B12 and B13 (0.1 μM, 1 μM, 10 μM) for 3 h. Untreated and DMSO (1%) treated cells served as control. GAPDH=loading control.
The BCR signalling pathway plays an important pathogenic role in CLL and lymphomas leading often to a constitutive active NFkappaB (in this state NFkappaB is phosphorylated). Therefore the influence of the derivatives on the phosphorylation status of NFkappaB was analyzed by Western Blot. CLL cells were treated with 0.1 μM, 1 μM or 10 μM of each derivate, respectively, for 3 h. CLL cells were treated with B1, B9, B12 and B13 (0.1 μM, 1 μM, 10 μM) for 3 h. Untreated and DMSO (1%) treated cells served as control. GAPDH=loading control.

[5] = tested on: acute myeloid leukemia cell line SH2; assay: Viability assay (ATP content, CellTiter-Glo), SH2; assay type: cell-based; details: 24 h
Description: as §3, §4

[6] = tested on: melanoma cell line MelJuso; assay: Viability assay (ATP content, CellTiter-Glo), MelJuso; assay type: cell-based; details: Homo sapiens, MEL-JUSO, 24 h
Description: as §3, §4

[7] = tested on: melanoma cell line MelJuso; assay: Annexin V/PI assay, MelJuso; assay type: cell-based; details: Homo sapiens, MEL-JUSO, 24 h
GRANTA-519 = assay: CellTiter-Glo ATP assay, GRANTA-519 cell line; assay type: cell-based; details: Homo sapiens, Granta-519; 24 h, CellTiter-Glo
Description: as §7, §8

[8] = tested on: small cell lung cancer cell line HCC44; assay: Annexin V/PI assay, HCC44; assay type: cell-based; details: Homo sapiens, HCC44, 24 h
U2932 = assay: CellTiter-Glo ATP assay, U2932 cell line; assay type: cell-based; details: 24 h, 0.01-1000 μM
Description: as §7, §8

[9] = tested on: ovarian adenocarcinoma cell line COLO704; assay: Annexin V/PI assay, COLO704; assay type: cell-based; details: COLO 704, 24 h
[10] = tested on: SW480, MelJuso, HCC44, SH2 and COLO704 cell lines; assay type: cell-based; details: 24 h, 0.01-100 μM
Description: as §3

[11] = tested on: CLL cells without a TP53 mutation; assay: FACS analysis of treated CLL cells without TP53 mutation; assay type: cell-based, human; details: 24 h, 0.01-100 μM, FIG. 6
Description: as §5, §6

JVM-3 = assay: CellTiter-Glo ATP assay, JVM-3 cell line; assay type: cell-based, human; details: 24 h, 0.01-1000 μM
Description: as §7, §8

[12] = tested on: several cancer cell lines; assay: Apoptosis (Annexin V/PI) assay, panel of cancer cell lines; assay type: cell-based; details: range over the cancer cell lines, 24 h; read-out: concentrations inducing apoptosis in different diseases (apoptosis array)
[13] = tested on: ovarian adenocarcinoma cell line COLO704; assay: Viability assay (ATP content, CellTiter-Glo), COLO704; assay type: cell-based; details: COLO 704, 24 h
Description: as §3, §4

EHEB = assay: CellTiter-Glo ATP assay, EHEB cell line; assay type: cell-based; details: 24 h, 0.01-1000 μM
Description: as §7, §8

[14] = tested on: small cell lung cancer cell line HCC44; assay: Viability assay (ATP content, CellTiter-Glo), HCC44; assay type: cell-based
Description: as §3, §4

[15] = 24 h incubation, 0.01-100 μM, 5*10^6 cells/ml, normalized to DMSO control, read-out: AnnexinV/PI assay EC50 PBMCs
[16] = 24 h incubation, 0.01-100 μM, 5*10^6 cells/ml, normalized to DMSO control
[17] = 24 h incubation, value extrapolated beyond tested 0.01-100 μM, read-out: AnnexinV/PI assay EC50 PBMCs (* = extrapolated)

CC(=O)Oc1cc(C)ccc1C(=O)Oc1ccc(CO[N+](=O)[O-])cc1 [B3, 4-((nitrooxy)methyl)phenyl 2-actetoxy-4-methylbenzoate]
EC50 [1, 15]: 55.1 µM | EC50 (Primary CLL cells; [16]): 4 µM

CC(=O)Oc1ccc(C)cc1C(=O)Oc1ccc(CO[N+](=O)[O-])cc1 [B2, 4-((nitrooxy)methyl)phenyl 2-actetoxy-5-methylbenzoate]
EC50 [1, 15]: 48.5 µM | EC50 (Primary CLL cells; [16]): 4.75 µM

Nc1cccc2c(S(=O)(=O)Oc3ccc(CO[N+](=O)[O-])cc3)cccc12 [B16, 4-((nitrooxy)methyl)phenyl 5-aminonaphthalene-1-sulfonate]
EC50 [1, 17]: 370 µM | EC50 (Primary CLL cells; [16]): 82.4 µM

O=C(Oc1ccc(CO)cc1)c1cc(C(F)(F)F)ccc1Cl [B5, 4-(hydroxymethyl)phenyl 2-chloro-5-(trifluoromethyl)benzoate]
EC50 [1, 17]: 108 µM | EC50 (Primary CLL cells; [16]): 37.2 µM

O=COCc1ccc(OC(=O)c2ccccc2)cc1 [B10, 4-((formyloxy)methyl)phenyl benzoate]
EC50 [1, 17]: 859 µM | EC50 (Primary CLL cells; [16]): 79.4 µM

O=C(Oc1ccc(CO)cc1)c1ccccc1 [B8, 4-(hydroxymethyl)phenyl benzoate]
EC50 (Primary CLL cells; [16]): 57.3 µM

O=C(Oc1ccc(CCl)cc1)c1ccccc1 [B12, 4-(chloromethyl)phenyl benzoate]
EC50 [2]: 1.68 µM | EC50 [3]: 130 µM | effect on TP53-mutated CLL cells in comparison to para-NO-ASA (B1) (TP53-mutated CLL cells): more effective | EC50 (MEC-1): 3.24 µM | EC50 [1, 15]: 35 µM | reduction of NFkappaB activity (phosphorylated NFkappaBp65) [4]: concentration dependent reduction | concentration inducing the reduction of NFkappaB p65 protein [4]: 10 µM | EC50 [5]: 0.01 µM | EC50 [6]: 0.54 µM | EC50 [7]: 4.79 µM | EC50 (GRANTA-519): 0.68 µM | selectivity for CLL cells compared to PBMCs (Primary CLL cells; 24 h): selective for CLL cells | EC50 (Primary CLL cells; [16]): 1.33 µM | EC50 [8]: 7.35 µM | ATP content in U2932 (U2932): reduced ATP content | EC50 [9]: 1.8 µM | ATP content in SW480, MelJuso, HCC44, SH2 and COLO704 cell lines [10]: reduced ATP content | effect on CLL cells without a TP53 mutation [11]: great effect | ATP content in JVM-3 (JVM-3): reduced ATP content | EC50 [12]: 1 to 5 µM | EC50 [13]: 2.77 µM | ATP content in EHEB (EHEB): reduced ATP content | EC50 ([14]; 24 h): 1.03 µM | EC50 ([14]; Homo sapiens, HCC44, 24 h): 1.05 µM

O=C(Oc1ccc(CO[N+](=O)[O-])cc1)c1cc(C(F)(F)F)ccc1Cl [B6, 4-((nitrooxy)methyl)phenyl 2-chloro-5-(trifluoromethyl)benzoate]
EC50 [1, 15]: 73.9 µM | EC50 (Primary CLL cells; [16]): 4.42 µM

COc1ccccc1C(=O)Oc1ccc(CO[N+](=O)[O-])cc1 [B18, 4-((nitrooxy)methyl)phenyl 2-methoxybenzoate]
EC50 (Primary CLL cells; [16]): 26 µM

C#Cc1cc(CO[N+](=O)[O-])ccc1OC(=O)c1ccccc1 [B20, 2-ethynyl-4-((nitrooxy)methyl)phenyl benzoate]
EC50 [1, 17]: 308 µM | EC50 (Primary CLL cells; [16]): 21.8 µM

CC(C)(C)[Si](C)(C)OCc1ccc(OC(=O)c2ccccc2)cc1 [B7, 4-(((tert-butyldimethylsilyl)oxy)methyl)phenyl benzoate]
EC50 [1, 17]: 203 µM | EC50 (Primary CLL cells; [16]): 52.8 µM

O=C(Oc1ccc(CO[N+](=O)[O-])cc1)c1cccc2ccccc12 [B13, 4-((nitrooxy)methyl)phenyl 1-naphthoate]
EC50 [2]: 6.95 µM | EC50 [3]: 190 µM | effect on TP53-mutated CLL cells in comparison to para-NO-ASA (B1) (TP53-mutated CLL cells): more effective | EC50 (MEC-1): 24.1 µM | EC50 [1, 15]: 52.7 µM | reduction of NFkappaB activity (phosphorylated NFkappaBp65) [4]: concentration dependent reduction | concentration inducing the reduction of NFkappaB p65 protein [4]: 10 µM | EC50 [5]: 0.64 µM | EC50 [6]: 4.79 µM | EC50 [7]: 57.5 µM | EC50 (GRANTA-519): 19.7 µM | selectivity for CLL cells compared to PBMCs (Primary CLL cells; 24 h): selective for CLL cells | EC50 (Primary CLL cells; [16]): 1.04 µM | EC50 [8]: 37.9 µM | ATP content in U2932 (U2932): reduced ATP content | EC50 [9]: 53.7 µM | ATP content in SW480, MelJuso, HCC44, SH2 and COLO704 cell lines [10]: reduced ATP content | ATP content in JVM-3 (JVM-3): reduced ATP content | EC50 [12]: 7 to 57 µM | EC50 [13]: 7.86 µM | ATP content in EHEB (EHEB): reduced ATP content | EC50 ([14]; Homo sapiens, HCC44, 24 h): 1.68 µM

O=C(Oc1ccc(CO[N+](=O)[O-])cc1)C1CCCCC1 [B14, 4-((nitrooxy)methyl)phenyl cyclohexane carboxylate]
EC50 [1, 15]: 20.2 µM | EC50 (Primary CLL cells; [16]): 3.31 µM

COc1cc(CO[N+](=O)[O-])ccc1OC(=O)c1ccccc1 [B11, 2-methoxy-4-((nitrooxy)methyl)phenyl benzoate]
EC50 ([1]; 24 h, read-out: AnnexinV/PI assay EC50 PBMCs): 24.4 µM | EC50 (Primary CLL cells; 24 h): 14.7 µM
